These results are taken from ChEMBL document CHEMBL1150581, “Batzelline D and isobatzelline E from the indopacific sponge Zyzzya fuliginosa” (J Nat Prod, 2002).

As a reminder, the IC50 is the concentration that gives 50% inhibition.

The structures appear in SMILES notation. Activity calls are given as the source filed them. The calls are words filed in the database; no cut-off is given here.

The nature of assay [1]: Inhibition of HIV1 env protein assessed as inhibition of env expressing african green monkey BSC1 cell fusion with mouse NIH3T3 cell expressing CXCR4 and Escherichia coli T7 after 2.5 hrs by beta galactosidase report gene assay. To be noted: Human immunodeficiency virus 1, NIH3T3, 2.5 h.
Assay [2] has as its system NIH3T3. The experiment in a line: Inhibition of HIV1 env protein assessed as inhibition of env expressing african green monkey BSC1 cell fusion with mouse NIH3T3 cell expressing CXCR4 and Escherichia coli T7 at 1 ug/ml after 2.5 hrs by beta galactosidase report gene assay. To be noted: Human immunodeficiency virus 1.

As for `Cn1cc2c3c1C(=O)C(N)=CC3=NCC2` [MAKALUVAMINE A], the IC50 in assay [1] was 5 µM. Besides, the result in assay [2] was Active.

`Cn1cc2c3c1C(=O)C(N)=CC3=[N+](C)CC2` [MAKALUVAMINE H]: the IC50 in assay [1] is 5 µM. The result in assay [2] was Active.

For `Cn1cc2c3c1C(=O)C(N)=C(Cl)C3=NCC2` [ISOBATZELLINE C], the IC50 in assay [1] was found to be 0.2 µM. The result in assay [2] was Active.
